# Assay results: patent US20190083462A1, “PREVENTION OF NSAID ENTEROPATHY WITH MICROBIOTA-DERIVED TRYPTOPHAN-METABOLITE” (THE TEXAS A&M UNIVERSITY SYSTEM, priority 2016, published 2019)
# Test system: small intestinal mucosa
# Test: RNA sequencing (RNA-Seq) of the distal small intestinal mucosa
# Assay type: in vivo, mice
# Excerpt: Eight- to 10-week-old specific-pathogen-free C57BL/6J mice were purchased and allowed to acclimate for 2 weeks. Mice were fed standardized laboratory rodent diet and sterile water ad libitum. Mice were randomly divided into the following 4 groups (n=5 mice/group): 1) NSAID (indomethacin); 2) indole; 3) NSAID+indole; and, 4) untreated controls. Mice were then rehoused on the basis of treatment group assignment, with 5 animals/group-cage. To induce NSAID enteropathy, mice in group 1 were gavaged once daily with indomethacin (5 mg/kg; for 7 days; Sigma Aldrich, St. Louis, Mo.) dissolved in dimethylysulfoxide (DMSO) (Sigma Aldrich, St. Louis, Mo.) and further diluted in phosphate buffered saline (PBS). Mice in group 2 received indole by gavage (20 mg/kg; once daily for 7 days; Sigma Aldrich, St. Louis, Mo.) dissolved in sterile water warmed to 55° C. Mice in group 3 received indole co-administered with indomethacin by gavage at the dosages described above. All mice were gavaged with equal volumes (200 μL) and equal concentrations of DMSO (0.001%).
# Feces were collected daily by placing individual animals in sterile plastic cups that were RNase- and DNase-free until they passed feces. The mice were immediately returned to their home cages and the feces immediately flash frozen at −80° C. […]
# RNA was extracted from the mucosal scrapings using an RNeasy mini kit (QIAGEN, Redwood City, Calif.) following the manufacturer's instructions and including on-column DNase treatment. RNA quantity was determined using a Nanodrop spectrophotometer (Fisher Thermoscientific) and the quality was assessed using the Nano6000 chip on a Bioanalyzer 2100(Agilent Technologies). […] Differentially expressed genes were determined using EdgeR based on the matrix of gene counts (Robinson M D, McCarthy D J, Smyth G K. edgeR: a Bioconductor package for differential expression analysis of digital gene expression data. Bioinformatics (Oxford, England) 2010; 26:139-40). Gene lists were analyzed through use of QIAGEN's Ingenuity® Pathway Analysis (IPA, QIAGEN, Redwood City, Calif. http://www.qiagen.com/ingenuity). […]
compound,measurement,setting,value
"COc1ccc2c(c1)c(CC(=O)O)c(C)n2C(=O)c1ccc(Cl)cc1 [NSAID, indomethacin]",NF-κB signaling pathway activation,RNA-Seq pathway analysis of mucosal scrapings,activated
same,"transcription of pro-inflammatory cytokines (IL-1α, IL-1β, TNF, IL-6) and chemokines (CXCL1, CXCL3, CXCL2, CXCL5, CCL2, CCL7)","small intestinal mucosal transcriptome after 7 days, vs control mice",significantly up-regulated
